The numbers were not newly measured in patent US20050222163A1, “Combinations of signal transduction inhibitors” (PFIZER INC, priority 2004, published 2005), which cites them from elsewhere.

Data set [1] relates to phosphorylated ERK1 and ERK2. To be noted: background statement, result in words.
The conditions of data set [2]: comparison with predecessor CI-1040, result in words.

For the compound `O=C(NOCC1CC1)c1ccc(F)c(F)c1Nc1ccc(I)cc1Cl` [CI-1040, 2-(2-Chloro-4-iodo-phenylamino)-N-cyclopropylmethoxy-3,4-difluoro-benzamide, reference compound], in data set [1], the “levels of phosphorylated ERK1 and ERK2” value is “significant decrease”. As to `O=C(NOC[C@H](O)CO)c1ccc(F)c(F)c1Nc1ccc(I)cc1F` [N-[(R)-2,3-Dihydroxy-propoxy]-3,4-difluoro-2-(2-fluoro-4-iodo-phenylamino)-benzamide], the “metabolic stability relative to CI-1040” value in data set [2] is “metabolically more stable”. Moreover, in data set [1], the “levels of phosphorylated ERK1 and ERK2” value was “significantly inhibits the phosphorylation of ERK1 and ERK2”.
